System: ovulation
Test: inhibition of ovulation in female rats (M. Marko and E. Fluckiger)
Assay type: in vivo
Details: s.c.
Method: The LHRH antagonists of the invention, in particular the compounds of formula XI inhibit luteinizing hormone secretion, e.g. as indicated by an inhibition of ovulation in animals. This test is effected according to M. Marko and E. Fluckiger, Experientia 30, […] (1974).
Adult female rats of the Ivanovas Wistar strain (Sprague Dawley, Iva: SDIV, 200-250 g) are kept under standard conditions: 14 h light (from 0.400 to 18.00 hours); 24° C.; 55-60% rel. humidity; food and water ad libitum. Animals with regular 4-day cycles are injected on proestrus day at 13.00 h with the compound to be tested, subcutaneously or by the oral route. The next day at 9:00 a.m. the rats are sacrified and ova counted on both Fallopian tubes with the aid of a dissecting microscope. Only when no eggs are found is ovulation considered to be inhibited. The mean number of eggs per ovulating rat in each treatment groups is also determined.

[N-Ac-DPhe(Cl)^1,2, DTrp^3,DAla^10 ]-LHRH
ED50 inhibition of ovulation: 0.08 mg/kg
